Laboratory results reported in publication PMC2844763 (Bioorganic & medicinal chemistry letters, 2010).
Entries after “also recorded” stand apart in the source; their conditions may differ.

Experiments:
[1] = target: E. coli MetAP (Escherichia coli, UniProt P0AE18); assay: cell-based MetAP assay; conditions: Ca(II) treated cells; result in words
[2] = system: E. coli MetAP in the Fe(II)-form; conditions: result in words; ref [11] and [16]; cited from earlier work
[3] = system: E. coli AS19 strain; conditions: result in words; ref [11] and [16]; cited from earlier work
[4] = system: MetAP in the Co(II)-form; conditions: result in words; ref [10]; cited from earlier work

Chain of E. coli MetAP (P0AE18 whole entry): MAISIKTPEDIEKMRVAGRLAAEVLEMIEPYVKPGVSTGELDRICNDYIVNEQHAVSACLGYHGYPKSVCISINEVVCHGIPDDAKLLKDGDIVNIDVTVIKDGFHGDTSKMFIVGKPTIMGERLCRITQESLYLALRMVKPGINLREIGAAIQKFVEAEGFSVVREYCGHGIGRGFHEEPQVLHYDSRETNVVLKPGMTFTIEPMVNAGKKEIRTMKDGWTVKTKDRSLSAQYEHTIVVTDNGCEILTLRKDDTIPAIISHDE

SMILES: Cc1nc(-c2ccc(O)c(O)c2)cs1 [compound 1]
- inhibition of intracellular Met-AMC hydrolysis (cellular MetAP activity) [1]: displayed inhibition; also recorded: inhibited in a time-dependent fashion

SMILES: COc1ccc(-c2csc(C)n2)cc1OC [compound 2]
- inhibition of intracellular Met-AMC hydrolysis (cellular MetAP activity) [1]: decreased potency

SMILES: Cc1nc(-c2cccc(O)c2)cs1 [compound 3]
- inhibition of intracellular Met-AMC hydrolysis (cellular MetAP activity) [1]: no inhibition

SMILES: Cc1nc(-c2ccc(O)cc2O)cs1 [compound 4]
- inhibition of intracellular Met-AMC hydrolysis (cellular MetAP activity) [1]: no inhibition

SMILES: O=C(NC1CC1)c1ccc(-c2ccc(O)c(O)c2)s1 [compound 22]
- inhibition of intracellular Met-AMC hydrolysis (cellular MetAP activity) [1]: exceptions

SMILES: O=C(NC1CC1)c1ccsc1-c1ccc(O)c(O)c1 [compound 23]
- inhibition of intracellular Met-AMC hydrolysis (cellular MetAP activity) [1]: exceptions

SMILES: O=C(O)c1ccc(-c2ccccc2Cl)o1 [compound 28]
- inhibition of purified MetAP in the Fe(II)-form [2]: weak inhibition
- inhibition of bacterial growth [3]: did not halt bacterial growth

SMILES: O=C(O)c1ccc(-c2cc(Cl)ccc2Cl)o1 [compound 29]
- inhibition of purified MetAP in the Fe(II)-form [2]: weak inhibition
- inhibition of bacterial growth [3]: did not halt bacterial growth

SMILES: O=C(Nc1nccs1)C(=O)NC1CCCC1 [compound 30]
- potency and selectivity towards purified MetAP in the Co(II)-form [4]: highly potent and selective
- inhibition of purified MetAP in the Fe(II)-form [2]: weak inhibition
- inhibition of intracellular Met-AMC hydrolysis (cellular MetAP activity) [1]: no inhibition
- inhibition of bacterial growth [3]: did not halt bacterial growth

SMILES: O=C(NCc1ccccn1)C(=O)Nc1nccs1 [compound 31]
- potency and selectivity towards purified MetAP in the Co(II)-form [4]: highly potent and selective
- inhibition of purified MetAP in the Fe(II)-form [2]: weak inhibition
- inhibition of intracellular Met-AMC hydrolysis (cellular MetAP activity) [1]: no inhibition
- inhibition of bacterial growth [3]: did not halt bacterial growth
